In PubChem BioAssay AID2060912 (Molecular Pharmacology Branch, DTP, NCI, 2025):

Test system: HUVEC/MSC spheroids viability
Assay: Human HUVEC/MSC cell line growth inhibition [KRAS2];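 for viability, T/C: percent of DMSO vehicle control luminescence so 100% = untreated viability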
Details: for IC50: curve of first compound; for viability, T/C: stronger effect = lower value
In short: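 Growth/viability of tumour-free HUVEC–hMSC spheroids was measured after exposure to targeted small molecules and KRAS inhibitors, singly or in combination. Agents were diluted in half-log steps from Cmax-based top concentrations, capped at 10 microM without known Cmax.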

[1] = second compound 0.0316 µM, first compound 0.0316 µM
[2] = second compound 0.0316 µM, first compound 0.1 µM
[3] = second compound 0.0316 µM, first compound 0.316 µM
[4] = second compound 0.0316 µM, first compound 1 µM
[5] = second compound 0.1 µM, first compound 0.0316 µM
[6] = second compound 0.1 µM, first compound 0.1 µM
[7] = second compound 0.1 µM, first compound 0.316 µM
[8] = second compound 0.1 µM, first compound 1 µM
[9] = second compound 0.316 µM, first compound 0.0316 µM
[10] = second compound 0.316 µM, first compound 0.1 µM
[11] = second compound 0.316 µM, first compound 0.316 µM
[12] = second compound 0.316 µM, first compound 1 µM
[13] = second compound 1 µM, first compound 0.0316 µM
[14] = second compound 1 µM, first compound 0.1 µM
[15] = second compound 1 µM, first compound 0.316 µM
[16] = second compound 1 µM, first compound 1 µM
[17] = second compound 3.16 µM, first compound 0.0316 µM
[18] = second compound 3.16 µM, first compound 0.1 µM
[19] = second compound 3.16 µM, first compound 0.316 µM
[20] = second compound 3.16 µM, first compound 1 µM
[21] = second compound 10 µM, first compound 0.0316 µM
[22] = second compound 10 µM, first compound 0.1 µM
[23] = second compound 10 µM, first compound 0.316 µM
[24] = second compound 10 µM, first compound 1 µM
[25] = second compound 0.0316 µM, first compound 0.00316 µM
[26] = second compound 0.0316 µM, first compound 0.01 µM
[27] = second compound 0.1 µM, first compound 0.00316 µM
[28] = second compound 0.1 µM, first compound 0.01 µM
[29] = second compound 0.316 µM, first compound 0.00316 µM
[30] = second compound 0.316 µM, first compound 0.01 µM
[31] = second compound 1 µM, first compound 0.00316 µM
[32] = second compound 1 µM, first compound 0.01 µM
[33] = second compound 3.16 µM, first compound 0.00316 µM
[34] = second compound 3.16 µM, first compound 0.01 µM
[35] = second compound 10 µM, first compound 0.00316 µM
[36] = second compound 10 µM, first compound 0.01 µM

## CC1(C)CCC(CN2CCN(c3ccc(C(=O)NS(=O)(=O)c4ccc(NCC5CCOCC5)c([N+](=O)[O-])c4)c(Oc4cnc5[nH]ccc5c4)c3)CC2)=C(c2ccc(Cl)cc2)C1 + CC1OCC2(CCN(c3cnc(Sc4ccnc(N)c4Cl)c(N)n3)CC2)C1N
Second compound 0.0316 µM
  IC50: 5150 nM
Second compound 0.1 µM
  IC50: 4690 nM
Second compound 0.316 µM
  IC50: 4770 nM
Second compound 1 µM
  IC50: 4470 nM
Second compound 3.16 µM
  IC50: 3510 nM
Second compound 10 µM
  IC50: 2230 nM
[1]
  viability, T/C: 99.2%
[2]
  viability, T/C: 116%
[3]
  viability, T/C: 109%
[4]
  viability, T/C: 108%
Second compound 0.0316 µM, first compound 3.16 µM
  viability, T/C: 83.8%
Second compound 0.0316 µM, first compound 10 µM
  viability, T/C: 4.11%
[5]
  viability, T/C: 116%
[6]
  viability, T/C: 110%
[7]
  viability, T/C: 102%
[8]
  viability, T/C: 94.9%
Second compound 0.1 µM, first compound 3.16 µM
  viability, T/C: 78.6%
Second compound 0.1 µM, first compound 10 µM
  viability, T/C: 1.56%
[9]
  viability, T/C: 91.5%
[10]
  viability, T/C: 124%
[11]
  viability, T/C: 122%
[12]
  viability, T/C: 110%
Second compound 0.316 µM, first compound 3.16 µM
  viability, T/C: 75.6%
Second compound 0.316 µM, first compound 10 µM
  viability, T/C: 3.8%
[13]
  viability, T/C: 91%
[14]
  viability, T/C: 95%
[15]
  viability, T/C: 102%
[16]
  viability, T/C: 92.3%
Second compound 1 µM, first compound 3.16 µM
  viability, T/C: 71.6%
Second compound 1 µM, first compound 10 µM
  viability, T/C: 0.34%
[17]
  viability, T/C: 93.2%
[18]
  viability, T/C: 91.9%
[19]
  viability, T/C: 93%
[20]
  viability, T/C: 66.1%
Second compound 3.16 µM, first compound 3.16 µM
  viability, T/C: 61.3%
Second compound 3.16 µM, first compound 10 µM
  viability, T/C: 0.92%
[21]
  viability, T/C: 76%
[22]
  viability, T/C: 76.2%
[23]
  viability, T/C: 85.1%
[24]
  viability, T/C: 69.8%
Second compound 10 µM, first compound 3.16 µM
  viability, T/C: 40.9%
Second compound 10 µM, first compound 10 µM
  viability, T/C: 0.29%

## CCN1CCN(Cc2ccc(Nc3ncc(F)c(-c4cc(F)c5nc(C)n(C(C)C)c5c4)n3)nc2)CC1 + CC1OCC2(CCN(c3cnc(Sc4ccnc(N)c4Cl)c(N)n3)CC2)C1N
Second compound 0.0316 µM
  IC50: > 1000 nM
Second compound 0.1 µM
  IC50: > 1000 nM
Second compound 0.316 µM
  IC50: > 1000 nM
Second compound 1 µM
  IC50: > 1000 nM
Second compound 3.16 µM
  IC50: > 1000 nM
Second compound 10 µM
  IC50: > 1000 nM
[25]
  viability, T/C: 105%
[26]
  viability, T/C: 105%
[1]
  viability, T/C: 95.6%
[2]
  viability, T/C: 111%
[3]
  viability, T/C: 124%
[4]
  viability, T/C: 121%
[27]
  viability, T/C: 111%
[28]
  viability, T/C: 105%
[5]
  viability, T/C: 117%
[6]
  viability, T/C: 93.4%
[7]
  viability, T/C: 123%
[8]
  viability, T/C: 114%
[29]
  viability, T/C: 108%
[30]
  viability, T/C: 108%
[9]
  viability, T/C: 102%
[10]
  viability, T/C: 96.9%
[11]
  viability, T/C: 117%
[12]
  viability, T/C: 114%
[31]
  viability, T/C: 94.3%
[32]
  viability, T/C: 95.9%
[13]
  viability, T/C: 85.6%
[14]
  viability, T/C: 96%
[15]
  viability, T/C: 102%
[16]
  viability, T/C: 114%
[33]
  viability, T/C: 81.1%
[34]
  viability, T/C: 84.8%
[17]
  viability, T/C: 88.2%
[18]
  viability, T/C: 80%
[19]
  viability, T/C: 96.2%
[20]
  viability, T/C: 87.2%
[35]
  viability, T/C: 74.8%
[36]
  viability, T/C: 66%
[21]
  viability, T/C: 67.2%
[22]
  viability, T/C: 62.3%
[23]
  viability, T/C: 84.1%
[24]
  viability, T/C: 91.2%

## Cn1ncnc1[C@H]1c2n[nH]c(=O)c3cc(F)cc(c23)N[C@@H]1c1ccc(F)cc1 + CC1OCC2(CCN(c3cnc(Sc4ccnc(N)c4Cl)c(N)n3)CC2)C1N
Second compound 0.0316 µM
  IC50: > 100 nM
Second compound 0.1 µM
  IC50: > 100 nM
Second compound 0.316 µM
  IC50: > 100 nM
Second compound 1 µM
  IC50: > 100 nM
Second compound 3.16 µM
  IC50: > 100 nM
Second compound 10 µM
  IC50: > 100 nM
Second compound 0.0316 µM, first compound 0.000316 µM
  viability, T/C: 105%
Second compound 0.0316 µM, first compound 0.001 µM
  viability, T/C: 111%
[25]
  viability, T/C: 97.5%
[26]
  viability, T/C: 86.9%
[1]
  viability, T/C: 90.8%
[2]
  viability, T/C: 89.7%
Second compound 0.1 µM, first compound 0.000316 µM
  viability, T/C: 87.9%
Second compound 0.1 µM, first compound 0.001 µM
  viability, T/C: 114%
[27]
  viability, T/C: 99.9%
[28]
  viability, T/C: 75.7%
[5]
  viability, T/C: 93.2%
[6]
  viability, T/C: 95.6%
Second compound 0.316 µM, first compound 0.000316 µM
  viability, T/C: 80%
Second compound 0.316 µM, first compound 0.001 µM
  viability, T/C: 111%
[29]
  viability, T/C: 98.5%
[30]
  viability, T/C: 96.9%
[9]
  viability, T/C: 93.2%
[10]
  viability, T/C: 81.7%
Second compound 1 µM, first compound 0.000316 µM
  viability, T/C: 83.9%
Second compound 1 µM, first compound 0.001 µM
  viability, T/C: 93.7%
[31]
  viability, T/C: 95.4%
[32]
  viability, T/C: 84.3%
[13]
  viability, T/C: 93.8%
[14]
  viability, T/C: 67.7%
Second compound 3.16 µM, first compound 0.000316 µM
  viability, T/C: 79.7%
Second compound 3.16 µM, first compound 0.001 µM
  viability, T/C: 94.4%
[33]
  viability, T/C: 80.9%
[34]
  viability, T/C: 74%
[17]
  viability, T/C: 76.8%
[18]
  viability, T/C: 69.2%
Second compound 10 µM, first compound 0.000316 µM
  viability, T/C: 69.7%
Second compound 10 µM, first compound 0.001 µM
  viability, T/C: 82.3%
[35]
  viability, T/C: 67.3%
[36]
  viability, T/C: 68.3%
[21]
  viability, T/C: 65.7%
[22]
  viability, T/C: 56%
